From patent US10633448B2, “IGF-1R antibody-drug-conjugate and its use for the treatment of cancer” (PIERRE FABRE MEDICAMENT, priority 2014, dated 2020) come the findings set out here.

The subject of one assay is lysosome functions. As to the kind of experiment: Inhibition of Ab degradation with lysosome inhibitor. Particulars: cells with 10 μg/ml Ab, 2 h at 37° C. The format is cell-based. Here is the method: In order to confirm that antibodies reached the lysosome were they are degraded, cells were treated or not with bafilomycine A1, a potent inhibitor of lysosome functions. Cells were then incubated with 10 μg/ml of Ab to be tested at 4° C., washed and incubated for 2 h at 37° C. The internalized Ab was detected after cell permeabilisation using a secondary anti-mouse IgG-Alexa 488 Ab.

The test system of assay [1] is MDA-MB-231 (breast adenocarcinoma) cells. The experiment in a line: ATPlite antiproliferative assay, MDA-MB-231. The format is cell-based, human. Particulars: 72 h drug treatment. Here is the method:
A549 (Non Small Cell Lung Cancer—ATCC CCL-185) and MDA-MB-231 (breast adenocarcinoma—ATCC HTB-26) cells were cultured in Minimum Essential Medium Eagle (MEM) with 5% fetal calf serum (FCS) and Dulbecco's modified Eagle Medium (DMEM) with 10% FCS respectively. MCF7 (breast ductal carcinoma—ATCC HTB-22) and SN-12C (kidney carcinoma—ATCC) cells were maintained in RPMI1640 medium (without phenol red for MCF7 cells) containing 10% FCS. All the media were supplemented with fungizone (1.25 μg/mL) and penicillin-streptomycin (100 U/100 μg/mL). Cells were cultured under standard conditions in an incubator at 37° C., 5% CO2 and 95% atmospheric humidity.
Selected drugs were investigated for their antiproliferative activity using an ATPlite proliferation assay (Perkin Elmer, Villebon sur Yvette, France) on a comprehensive panel of 4 cell lines. […] On day 4, cell viability was evaluated by dosing the ATP released by viable cells. The number of viable cells was analyzed in comparison with the number of solvent treated cells. The EC50 values were determined with curve fitting analysis (non linear regression model with a sigmoidal dose response, variable hill slope coefficient), performed with the algorithm provided by the GraphPad Software (GraphPad Software Inc., CA, USA).
In general terms: In ATP-based viability assays light output follows the ATP content of the culture.

For the compound `CO/C1=C\C(C)=C\[C@@H](C)[C@@H](O)[C@@H](C)C/C(C)=C/C=C/[C@H](OC)[C@@H]([C@@H](C)[C@@H](O)[C@H](C)[C@@]2(O)C[C@@H](O)[C@H](C)[C@@H](C(C)C)O2)OC1=O` [bafilomycine A1], the “degradation of intracellular Ab” value in the assay on lysosome functions is on record as “prevented the degradation of intracellular Ab”. For orientation: EC50 means the concentration that produces a half-maximal response. A low value points to higher potency in that assay. For “methyl (S)-2-((2R,3R)-3-((S)-1-((3R,4S,5S)-4-((S)-2-((S)-2-((3-aminobenzyl)(methyl)amino)-3-methylbutanamido)-N,3-dimethylbutanamido)-3-methoxy-5-methylheptanoyl)pyrrolidin-2-yl)-3-methoxy-2-methylpropanamido)-3-phenylpropanoate, trifluoroacetic acid [Compound 15]”, the midpoint of the response in assay [1], the EC50, lay at 170 pM.
